Results reported in ChEMBL document CHEMBL5465560, “Selectivity Literature for EUbOPEN Chemogenomic Library” (2024).

Key:
[1] = molecular target: RAC-gamma serine/threonine-protein kinase (Homo sapiens, UniProt Q9Y243); assay: Selectivity interaction (KinomeScan (DiscoverX)) EUB0001049a AKT3; conditions: at 1 µM
[2] = molecular target: Fibroblast growth factor receptor 1 (Homo sapiens, UniProt P11362); assay: Selectivity interaction (KinomeScan (DiscoverX)) EUB0000666a FGFR1; conditions: at 10 µM
Fibroblast growth factor receptor 1, sequence (P11362 22-822 limits assumed): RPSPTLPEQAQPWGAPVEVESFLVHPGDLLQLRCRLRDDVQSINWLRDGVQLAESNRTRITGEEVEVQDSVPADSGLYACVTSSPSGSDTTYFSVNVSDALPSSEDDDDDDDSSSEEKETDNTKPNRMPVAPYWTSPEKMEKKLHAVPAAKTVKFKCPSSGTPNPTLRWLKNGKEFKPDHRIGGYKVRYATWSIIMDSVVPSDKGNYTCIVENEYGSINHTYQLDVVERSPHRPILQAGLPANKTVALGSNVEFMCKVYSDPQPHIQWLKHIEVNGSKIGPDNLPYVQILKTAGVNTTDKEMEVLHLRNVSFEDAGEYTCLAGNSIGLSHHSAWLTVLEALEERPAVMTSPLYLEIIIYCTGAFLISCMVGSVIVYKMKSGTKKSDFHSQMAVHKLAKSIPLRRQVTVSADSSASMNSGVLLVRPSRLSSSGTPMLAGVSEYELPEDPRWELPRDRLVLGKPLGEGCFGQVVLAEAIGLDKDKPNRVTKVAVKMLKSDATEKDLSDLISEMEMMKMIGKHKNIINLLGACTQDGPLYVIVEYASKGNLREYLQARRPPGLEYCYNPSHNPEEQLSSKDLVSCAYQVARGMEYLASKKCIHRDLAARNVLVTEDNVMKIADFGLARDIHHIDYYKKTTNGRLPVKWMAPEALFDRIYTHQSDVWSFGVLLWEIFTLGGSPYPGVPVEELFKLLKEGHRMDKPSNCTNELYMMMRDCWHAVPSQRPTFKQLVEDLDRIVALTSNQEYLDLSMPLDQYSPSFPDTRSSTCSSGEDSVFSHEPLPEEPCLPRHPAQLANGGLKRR

[3] = molecular target: Tyrosine-protein kinase Fes/Fps (Homo sapiens) (UniProt P07332); assay: Selectivity interaction (KinaseProfiler screening (Millipore)) EUB0000601a FES; conditions: at 3 µM
Tyrosine-protein kinase Fes/Fps (Homo sapiens), sequence (P07332 whole entry): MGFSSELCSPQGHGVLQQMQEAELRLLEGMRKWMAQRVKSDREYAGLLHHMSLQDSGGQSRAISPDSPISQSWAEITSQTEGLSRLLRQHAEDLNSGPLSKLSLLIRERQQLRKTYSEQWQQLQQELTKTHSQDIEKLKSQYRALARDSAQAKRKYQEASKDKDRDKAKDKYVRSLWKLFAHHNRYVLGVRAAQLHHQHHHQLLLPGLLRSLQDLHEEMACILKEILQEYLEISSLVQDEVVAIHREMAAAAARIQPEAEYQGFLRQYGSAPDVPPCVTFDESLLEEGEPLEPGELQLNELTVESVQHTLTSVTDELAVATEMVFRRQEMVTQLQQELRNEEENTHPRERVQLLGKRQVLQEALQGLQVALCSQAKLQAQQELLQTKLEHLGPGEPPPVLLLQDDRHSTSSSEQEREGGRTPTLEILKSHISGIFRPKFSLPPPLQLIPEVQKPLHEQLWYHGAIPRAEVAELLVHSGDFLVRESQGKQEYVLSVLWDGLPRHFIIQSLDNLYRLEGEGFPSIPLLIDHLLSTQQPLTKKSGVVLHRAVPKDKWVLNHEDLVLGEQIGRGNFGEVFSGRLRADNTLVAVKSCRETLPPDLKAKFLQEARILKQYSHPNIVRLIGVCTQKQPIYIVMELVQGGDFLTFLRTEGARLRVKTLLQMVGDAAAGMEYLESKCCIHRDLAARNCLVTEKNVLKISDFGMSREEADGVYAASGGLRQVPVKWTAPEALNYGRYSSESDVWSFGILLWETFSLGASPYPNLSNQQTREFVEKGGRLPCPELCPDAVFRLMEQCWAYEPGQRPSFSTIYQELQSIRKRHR

[4] = molecular target: Homeodomain-interacting protein kinase 2 (Homo sapiens, UniProt Q9H2X6); assay: Selectivity interaction (KinomeScan (DiscoverX)) EUB0000229b HIPK2; conditions: at 10 µM
[5] = molecular target: Mitogen-activated protein kinase 8 (Homo sapiens, UniProt P45983); conditions: at 10 µM
[6] = molecular target: T1, Serine/threonine-protein kinase LATS1 (Homo sapiens) (UniProt O95835); assay: Selectivity interaction (ActivX KiNativ screen (kinase selectivity in THP-1 cell lysates)) EUB0000639a LATS1; type: subcellular; conditions: lysate, at 5 µM
T1 sequence (whole entry): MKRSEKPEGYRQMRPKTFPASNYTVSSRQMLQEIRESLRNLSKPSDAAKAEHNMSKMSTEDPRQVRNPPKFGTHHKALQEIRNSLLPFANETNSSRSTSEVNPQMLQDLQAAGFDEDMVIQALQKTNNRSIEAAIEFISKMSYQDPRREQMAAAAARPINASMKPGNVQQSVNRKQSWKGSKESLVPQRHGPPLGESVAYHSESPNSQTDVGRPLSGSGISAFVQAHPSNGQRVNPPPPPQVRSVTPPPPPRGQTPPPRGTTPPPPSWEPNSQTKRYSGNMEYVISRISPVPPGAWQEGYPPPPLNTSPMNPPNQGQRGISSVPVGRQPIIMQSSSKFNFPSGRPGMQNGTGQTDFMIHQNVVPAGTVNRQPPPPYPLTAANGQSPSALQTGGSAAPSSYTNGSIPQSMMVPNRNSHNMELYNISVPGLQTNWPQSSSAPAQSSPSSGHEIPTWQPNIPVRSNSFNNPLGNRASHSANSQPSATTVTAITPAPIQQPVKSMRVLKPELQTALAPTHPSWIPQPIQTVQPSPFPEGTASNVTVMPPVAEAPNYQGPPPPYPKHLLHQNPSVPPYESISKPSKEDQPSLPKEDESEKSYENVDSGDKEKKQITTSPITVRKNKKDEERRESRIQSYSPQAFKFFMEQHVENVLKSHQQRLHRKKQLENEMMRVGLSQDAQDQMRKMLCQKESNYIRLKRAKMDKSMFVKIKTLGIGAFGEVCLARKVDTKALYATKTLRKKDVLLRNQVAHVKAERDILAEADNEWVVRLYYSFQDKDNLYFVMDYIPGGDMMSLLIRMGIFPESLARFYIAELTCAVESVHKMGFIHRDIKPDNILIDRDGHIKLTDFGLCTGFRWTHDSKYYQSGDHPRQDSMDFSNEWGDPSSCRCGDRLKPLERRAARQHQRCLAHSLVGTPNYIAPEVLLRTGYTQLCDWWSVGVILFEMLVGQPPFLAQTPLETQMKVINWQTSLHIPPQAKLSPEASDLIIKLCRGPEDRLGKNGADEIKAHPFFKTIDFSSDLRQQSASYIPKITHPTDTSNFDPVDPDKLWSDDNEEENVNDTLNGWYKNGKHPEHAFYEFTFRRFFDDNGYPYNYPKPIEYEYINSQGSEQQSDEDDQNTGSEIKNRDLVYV

[7] = molecular target: Serine/threonine-protein kinase PAK 6 (Homo sapiens) (UniProt Q9NQU5); assay: Selectivity interaction (KinomeScan (DiscoverX)) EUB0000595a PAK6; conditions: at 10 µM
Serine/threonine-protein kinase PAK 6 (Homo sapiens), sequence (Q9NQU5 whole entry, looked up): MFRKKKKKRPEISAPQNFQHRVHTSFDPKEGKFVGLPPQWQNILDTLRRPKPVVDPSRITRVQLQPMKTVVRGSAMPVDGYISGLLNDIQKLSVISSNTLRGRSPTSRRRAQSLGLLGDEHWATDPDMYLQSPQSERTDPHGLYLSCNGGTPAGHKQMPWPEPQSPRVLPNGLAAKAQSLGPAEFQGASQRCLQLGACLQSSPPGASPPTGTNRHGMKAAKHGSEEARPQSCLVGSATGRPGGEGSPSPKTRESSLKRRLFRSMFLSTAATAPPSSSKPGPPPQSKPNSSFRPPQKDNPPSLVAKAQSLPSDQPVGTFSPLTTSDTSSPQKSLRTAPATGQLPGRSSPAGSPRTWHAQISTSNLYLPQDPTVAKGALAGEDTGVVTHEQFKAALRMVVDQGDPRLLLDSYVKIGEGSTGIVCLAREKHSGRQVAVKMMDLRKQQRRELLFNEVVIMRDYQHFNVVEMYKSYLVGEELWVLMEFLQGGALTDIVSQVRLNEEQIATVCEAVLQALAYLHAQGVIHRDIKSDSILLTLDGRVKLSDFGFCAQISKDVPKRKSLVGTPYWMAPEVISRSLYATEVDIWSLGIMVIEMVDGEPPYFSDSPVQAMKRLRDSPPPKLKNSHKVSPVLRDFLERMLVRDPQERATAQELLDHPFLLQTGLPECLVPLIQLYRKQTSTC

[8] = molecular target: T2, NUAK family SNF1-like kinase 2 (Homo sapiens) (UniProt Q9H093); assay: Selectivity interaction (KinomeScan (DiscoverX)) EUB0000092b NUAK2; conditions: at 10 µM
T2 sequence (whole entry): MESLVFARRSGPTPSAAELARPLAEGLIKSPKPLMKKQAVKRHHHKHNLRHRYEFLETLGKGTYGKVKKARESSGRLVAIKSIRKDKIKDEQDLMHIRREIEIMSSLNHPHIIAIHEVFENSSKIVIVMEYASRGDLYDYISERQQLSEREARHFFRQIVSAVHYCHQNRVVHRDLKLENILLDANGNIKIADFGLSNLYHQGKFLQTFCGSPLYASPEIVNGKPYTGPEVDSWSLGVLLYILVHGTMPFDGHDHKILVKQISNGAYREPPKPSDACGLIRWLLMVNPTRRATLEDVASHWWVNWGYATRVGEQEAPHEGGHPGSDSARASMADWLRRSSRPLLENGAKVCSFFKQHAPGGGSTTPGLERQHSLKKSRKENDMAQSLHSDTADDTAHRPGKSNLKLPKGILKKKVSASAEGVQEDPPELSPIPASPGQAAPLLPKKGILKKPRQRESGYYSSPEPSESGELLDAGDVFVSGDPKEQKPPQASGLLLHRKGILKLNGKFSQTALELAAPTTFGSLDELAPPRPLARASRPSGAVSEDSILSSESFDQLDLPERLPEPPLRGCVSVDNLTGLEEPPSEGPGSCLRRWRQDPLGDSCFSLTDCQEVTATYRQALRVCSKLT

[9] = molecular target: T3, Megakaryocyte-associated tyrosine-protein kinase (Homo sapiens) (UniProt P42679); assay: Selectivity interaction (KinomeScan (DiscoverX)) EUB0000092b MATK; conditions: at 10 µM
T3 sequence (whole entry): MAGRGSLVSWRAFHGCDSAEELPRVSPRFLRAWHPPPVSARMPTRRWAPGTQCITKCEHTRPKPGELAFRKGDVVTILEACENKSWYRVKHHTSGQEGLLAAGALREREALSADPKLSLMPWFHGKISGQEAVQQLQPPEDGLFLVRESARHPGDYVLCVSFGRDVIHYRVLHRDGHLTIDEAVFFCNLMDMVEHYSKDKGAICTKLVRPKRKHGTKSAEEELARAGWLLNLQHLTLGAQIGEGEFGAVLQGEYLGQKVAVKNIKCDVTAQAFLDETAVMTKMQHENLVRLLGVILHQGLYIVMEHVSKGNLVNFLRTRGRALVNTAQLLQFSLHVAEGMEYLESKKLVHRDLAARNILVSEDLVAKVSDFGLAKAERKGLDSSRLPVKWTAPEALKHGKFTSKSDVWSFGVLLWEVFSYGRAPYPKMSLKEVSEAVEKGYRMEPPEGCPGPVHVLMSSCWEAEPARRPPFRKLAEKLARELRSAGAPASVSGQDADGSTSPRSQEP

[10] = molecular target: Ephrin type-A receptor 5 (Homo sapiens) (UniProt P54756); assay: Selectivity interaction (Kinase panel (Z-LYTE Assay)) EUB0001632a EPHA5; conditions: at 10 µM
Ephrin type-A receptor 5 (Homo sapiens), sequence (P54756 whole entry): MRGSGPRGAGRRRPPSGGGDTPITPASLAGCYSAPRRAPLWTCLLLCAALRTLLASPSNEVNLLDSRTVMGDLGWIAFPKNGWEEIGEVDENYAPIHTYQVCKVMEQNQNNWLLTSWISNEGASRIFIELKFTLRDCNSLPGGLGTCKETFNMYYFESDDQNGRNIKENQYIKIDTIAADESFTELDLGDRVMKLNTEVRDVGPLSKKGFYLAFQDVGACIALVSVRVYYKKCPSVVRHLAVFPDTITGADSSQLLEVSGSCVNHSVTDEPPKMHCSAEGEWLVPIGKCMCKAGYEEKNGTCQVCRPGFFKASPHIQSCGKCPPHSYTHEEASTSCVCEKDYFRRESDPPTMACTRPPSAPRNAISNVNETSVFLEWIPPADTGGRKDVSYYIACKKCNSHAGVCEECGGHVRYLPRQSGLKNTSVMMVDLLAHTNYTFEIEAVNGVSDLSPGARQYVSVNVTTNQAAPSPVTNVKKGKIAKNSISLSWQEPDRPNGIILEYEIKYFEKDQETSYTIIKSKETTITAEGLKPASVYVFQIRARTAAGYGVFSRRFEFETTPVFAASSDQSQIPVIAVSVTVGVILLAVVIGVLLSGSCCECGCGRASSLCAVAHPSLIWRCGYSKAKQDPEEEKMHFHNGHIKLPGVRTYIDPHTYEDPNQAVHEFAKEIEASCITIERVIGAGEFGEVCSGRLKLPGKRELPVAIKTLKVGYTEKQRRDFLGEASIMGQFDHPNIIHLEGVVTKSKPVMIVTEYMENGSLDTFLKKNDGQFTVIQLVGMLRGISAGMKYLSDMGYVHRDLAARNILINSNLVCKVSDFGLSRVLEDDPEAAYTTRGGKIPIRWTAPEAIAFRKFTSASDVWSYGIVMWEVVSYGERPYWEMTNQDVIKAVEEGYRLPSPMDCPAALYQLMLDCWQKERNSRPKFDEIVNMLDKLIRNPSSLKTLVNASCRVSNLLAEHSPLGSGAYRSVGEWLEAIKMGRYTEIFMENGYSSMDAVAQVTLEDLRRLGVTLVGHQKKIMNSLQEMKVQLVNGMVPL

[11] = molecular target: Serine/threonine-protein kinase Nek4 (Homo sapiens) (UniProt P51957); assay: Selectivity interaction (ProQinase) EUB0000171b NEK4
Serine/threonine-protein kinase Nek4 (Homo sapiens), sequence (P51957 whole entry, looked up): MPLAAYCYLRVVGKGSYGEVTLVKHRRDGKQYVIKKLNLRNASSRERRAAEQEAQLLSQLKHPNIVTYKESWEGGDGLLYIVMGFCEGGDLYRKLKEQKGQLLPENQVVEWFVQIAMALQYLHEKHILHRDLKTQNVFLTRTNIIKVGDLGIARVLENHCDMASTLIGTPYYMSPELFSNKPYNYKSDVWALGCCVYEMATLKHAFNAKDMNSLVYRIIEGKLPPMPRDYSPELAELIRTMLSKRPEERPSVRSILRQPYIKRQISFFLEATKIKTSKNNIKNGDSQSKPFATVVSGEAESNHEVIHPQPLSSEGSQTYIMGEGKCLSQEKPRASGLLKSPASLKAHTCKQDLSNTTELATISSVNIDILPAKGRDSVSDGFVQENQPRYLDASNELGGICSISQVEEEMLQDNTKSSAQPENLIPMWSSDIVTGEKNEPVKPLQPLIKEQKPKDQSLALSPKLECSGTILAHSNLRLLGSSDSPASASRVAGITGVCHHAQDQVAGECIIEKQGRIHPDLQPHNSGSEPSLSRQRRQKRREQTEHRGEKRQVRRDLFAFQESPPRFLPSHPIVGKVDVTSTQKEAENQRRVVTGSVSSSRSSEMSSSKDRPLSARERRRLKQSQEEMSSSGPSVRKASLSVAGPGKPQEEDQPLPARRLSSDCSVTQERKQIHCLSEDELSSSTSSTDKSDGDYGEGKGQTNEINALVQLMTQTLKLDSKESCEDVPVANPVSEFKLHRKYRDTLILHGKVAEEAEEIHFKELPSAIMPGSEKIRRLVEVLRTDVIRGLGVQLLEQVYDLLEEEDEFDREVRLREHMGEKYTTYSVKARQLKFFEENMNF

[12] = molecular target: Calcium/calmodulin-dependent protein kinase type II subunit delta (Homo sapiens) (UniProt Q13557); assay: Selectivity interaction (ProQinase) EUB0000171b CAMK2D
Calcium/calmodulin-dependent protein kinase type II subunit delta (Homo sapiens), sequence (Q13557 whole entry): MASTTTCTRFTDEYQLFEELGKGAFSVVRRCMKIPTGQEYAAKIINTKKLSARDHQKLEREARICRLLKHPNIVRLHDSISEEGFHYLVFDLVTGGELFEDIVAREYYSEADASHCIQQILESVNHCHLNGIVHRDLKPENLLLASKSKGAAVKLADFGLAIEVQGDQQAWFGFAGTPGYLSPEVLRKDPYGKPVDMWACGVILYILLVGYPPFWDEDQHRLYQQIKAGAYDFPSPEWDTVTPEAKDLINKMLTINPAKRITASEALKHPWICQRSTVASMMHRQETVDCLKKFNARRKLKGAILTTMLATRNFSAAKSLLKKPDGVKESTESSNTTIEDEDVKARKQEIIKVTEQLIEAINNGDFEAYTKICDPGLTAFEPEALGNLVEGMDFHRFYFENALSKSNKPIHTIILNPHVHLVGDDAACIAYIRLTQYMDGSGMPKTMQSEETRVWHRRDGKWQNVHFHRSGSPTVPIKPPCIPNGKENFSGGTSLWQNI

COc1cc(Nc2nc(C)cc(-c3cnn4nc(OC)ccc34)n2)cc(C(F)(F)F)c1
% of control [1]: 96%

O=C(NOC[C@H](O)CO)c1ccc(F)c(F)c1Nc1ccc(I)cc1F
% of control [2]: 100%

CCc1cc(Nc2nccc(-c3c(-c4ccc(OC)c(C(=O)Nc5c(F)cccc5F)c4)nc4ccccn34)n2)c(OC)cc1N1CCC(N2CCN(S(C)(=O)=O)CC2)CC1
% of inhibition [3]: 82%

COc1cc(N(C)c2ccnc3ccc(C(F)(F)F)cc23)cc(OC)c1OC
% binding [4]: 100%

CCN(CC)CCCCNc1ncc2cc(-c3cc(OC)cc(OC)c3)c(NC(=O)NC(C)(C)C)nc2n1
% of control [5]: 100%

CC[C@@H]1[C@H](F)C(=O)N[C@@H]1COc1nccc2cc(C(N)=O)c(OC)cc12 [ZIMLOVISERTIB]
% of inhibition [6]: -31.2%

COCC(=O)NC/C=C/c1ccc2ncnc(Nc3ccc(Oc4ccc(C)nc4)c(C)c3)c2c1 [CP-724714]
% of control [7]: 89%

CCC(=O)N1CCN(c2ccc(-n3c(=O)ccc4cnc5ccc(-c6cnc7ccccc7c6)cc5c43)cc2C(F)(F)F)CC1
% of control [8]: 100%
% of control [9]: 97%

Cn1cc(-n2cnc3c(NCc4nc5cc(Cl)c(Cl)cc5[nH]4)nc(N4CCOCC4)nc32)cn1
% of control [10]: 6.77%

C=CC(=O)Nc1cccc(C(=O)Nc2ccc(Nc3cc(-c4[nH]c(SC)nc4C)ccn3)cc2)c1
% of control ([11]; at 1 µM): 79%
% of control ([11]; at 5 µM): 51%
% of control ([12]; at 1 µM): 95%
% of control ([12]; at 5 µM): 92%
